Assay results reported in US8648115B2 (priority 2009, dated 2014).
Values joined by “and” are separate entries in the source; they are usually repeats but may differ in a detail not shown here. Equal entries are not always repeated. Where two headings read alike, the source gives them in different places.

What was measured:
Phytophthora infestans [1] = experiment: microbe, parasite or virus in culture; assay type: cell-based
Phytophthora infestans [2] = experiment: microbe, parasite or virus in culture; assay type: cell-based; conditions: for IC50: Phytophthora infestans, read-out: Phytophtora infestans (mycelial growth) IC 50
Colletotrichum coccodes = Colletotrichum coccodes mycelial growth bioassay (OD590); assay type: cell-based
Protocol: FIG. 6: Inhibitory effect of (E)-4-oxohexadec-2-enoic acid on the mycelial growth of Colletotrichum coccodes. One-day old mycelium in 96-well plates was inoculated with different (E)-4-oxohexadec-2-enoic acid concentrations. The growth of C. coccodes was determined by measuring the OD590. The experiment was repeated twice, with identical results.
C. coccodes (CBS369.75) was grown for five days in 50 ml of liquid soybean medium in the dark at 18° C. on a rotary shaker. In order to isolate spores, all of the culture was centrifuged for 5 min at 2100 g and 4° C. The supernatant, which contained the spores, was recentrifuged (10 min, 6500 g, 4° C.). After the supernatant had been decantered off, the pelleted spores were washed carefully in deionized water, centrifuged as above and finally the spore concentration was adjusted to 1×10^5 spores/ml in soybean medium. To carry out the biotest, 200 μl of this spore solution were pipetted into each well of a 96-well plate (Nunc A/S, Denmark). The plates were incubated in an incubator for 24 h at 17° C. in the dark to allow germination. Then, test concentrations of (E)-4-oxohexadec-2-enoic acid were pipetted in as described above, with final concentrations of from 0.01 μM to 100 μM and 2% (v/v) ethanol. The plates were returned into the incubator and the increase in fungal biomass was determined by daily OD590 measurements.
To determine whether (E)-4-oxohexadec-2-enoic acid also has an inhibitory effect on the ascomycete c. coccodes, the causative organism of, inter alia, black dot disease of potato, a multiwell bioassay was set up. The growth of the fungus in liquid medium was determined on the basis of the measurement of the optical density (OD590). A medium containing soya was used for this purpose. One-day old mycelium was inoculated together with various concentrations of (E)-4-oxohexadec-2-enoic acid, and the growth of C. coccodes was determined every 24 h. […] Increasing concentrations reduced the fungal growth even further.

Phytophthora infestans [3] = assay type: cell-based; conditions: lower concentrations (1-100 μM drops); three-week old mycelium; 24 h
Phytophthora infestans [4] = assay type: in vivo; conditions: 3 days after inoculation
[5] = test system: Potato plants (Solanum tuberosum L. cv. Désirée); conditions: in vivo
[6] = Phytophthora infestans, read-out: Phytophthora infestans (spore germination) IC 50, spore germination
[7] = read-out: Phytophthora infestans (spore germination) IC 50, spore germination

In the case of `CCCC(=O)/C=C/C(=O)O`, the IC50 (Phytophthora infestans [1]; [6]) is reported as 14 nM and 0.0019 µg/mL.

`O=C(O)/C=C/C(=O)CCCCCCCCCCF` was tested, and the IC50 (Phytophthora infestans [2]) was 80 µM and 20.7 µg/mL and the IC50 (Phytophthora infestans [1]; [6]) was 70 nM and 0.018 µg/mL.

In the case of `CCCCCCCCCCCCCCCCCCC(=O)/C=C/C(=O)O`, the IC50 (Phytophthora infestans [1]; [6]) is reported as 100 nM and 0.035 µg/mL.

`CCCCCCCCCCCCC(=O)/C=C/C(=O)O` [(E)-4-oxohexadec-2-enoic acid] was tested, and the “Mycelial growth (GFP fluorescence)” value (Phytophthora infestans [2]; 1 mM, one-day old mycelium) was “growth was inhibited”, the “Growth of C. coccodes” value (Colletotrichum coccodes; 0.01 μM) was “significant inhibitory effect” and the “Inhibition of growth of C. coccodes compared with the ethanol control” value (Colletotrichum coccodes; 1 μM) was “more than half”. For the same molecule, the “Growth of C. coccodes” value (Colletotrichum coccodes; 100 μM) was “complete inhibition”, the Spore germination (Phytophthora infestans [1]; 10 nM, 24 h) was “reduced” and the “Reduction of spore germination compared with the ethanol control” value (Phytophthora infestans [1]; 100 nM, 24 h) was “more than 50%”. For the same molecule, the Spores germinated (Phytophthora infestans [1]; 1 μM, 24 h) was less than 10%, the Spore germination (Phytophthora infestans [1]; 3.7 μM, 24 h) was “prevented completely” and the Spore lysis (Phytophthora infestans [1]; 100 μM) was “spore lysis was observed”. For the same molecule, the “Length of the germination tubes” value (Phytophthora infestans [1]; increasing concentrations) was “had an effect on the length of the germination tubes” and the “Viability of mature mycelium” value (Phytophthora infestans [3]) was “clear negative effect on mycelia viability”.

Molecule `CCCCCC(=O)/C=C/C(=O)O` [drawing 5] has an IC50 (Phytophthora infestans [1]; [6]) of 0.002 µg/mL and an IC50 (Phytophthora infestans [1]; [7]) of 12 nM.

In the case of `CCCCCC(=O)/C=C/C(=O)O` [drawing 6], the IC50 (Phytophthora infestans [1]; [6]) is reported as 14 nM.

In the case of `CCCCCCCCCCCCC(=O)/C=C/C(=O)O` [drawing 8], the IC50 (Phytophthora infestans [2]) is reported as 450 µM and 121 µg/mL and the IC50 (Phytophthora infestans [1]; [6]) is reported as 70 nM and 0.0018 µg/mL.

Molecule `CCCCCCCCCCCCC(=O)/C=C/C(=O)[O-].[K+]` [drawing 9] has an IC50 (Phytophthora infestans [1]; [6]) of 0.018 µg/mL and an IC50 (Phytophthora infestans [1]; [7]) of 60 nM.

In the case of `CCCCCCCCCCCCC(=O)/C=C/C(=O)[O-].[Na+]` [sodium (E)-4-oxohexadec-2-enoate, Sodium (E)-4-oxohexadec-2-enoate], the “Inhibition of infection with P. infestans compared with untreated control plants” value (Phytophthora infestans [4]; 10 μM spray 2 h before inoculation) is reported as 80%, the “Inhibition of infection with P. infestans compared with untreated control plants” value (Phytophthora infestans [4]; 100 μM spray 2 h before inoculation) is reported as 95% and the “Toxic effects on the leaves” value [5] is reported as “no toxic effects on the leaves”.
